Data on three molecules can be found in paper PMC10384862, “[^212Pb]Pb-eSOMA-01: A Promising Radioligand for Targeted Alpha Therapy of Neuroendocrine Tumors” (Pharmaceuticals, 2023).

Structures are written as SMILES. Like-named read-outs stand apart in the source and are kept apart here. A value given as a limit tells only on which side of the number the result lay.

A short description of series [1]: LogD7.4 by shake-flask method (n-octanol/PBS). It counts as physicochemical. Conditions: ^203Pb-labeled compound; n-octanol/PBS pH 7.4; n = 3. Here is the method:
Distribution coefficients (LogD7.4) were determined by the shake-flask method. A sample containing the ^203Pb-labeled compound (~1 MBq) was added to a vial containing PBS (600 µL, pH 7.4) and n-octanol (600 µL). The vial was vortexed vigorously and then centrifuged at 10,000 rpm for 10 min for phase separation. Samples (100 µL) of the n-octanol and aqueous phases were taken and measured by a gamma counter. The LogD7.4 value was calculated by using the equation: LogD7.4 = log [(counts in the n-octanol phase)/(counts in the aqueous phase)]. Measurements were performed in triplicate.

A short description of series [2]: In vitro stability in PBS. Conditions: phosphate buffered saline, pH 7.4; ^203Pb-labeled; 24 h; 37 °C; n = 1; read-out: Stability in PBS, intact labeled ligand. It counts as physicochemical. Here is the method:
The ^203Pb-labeled compounds (~ 2 MBq) or the ^212Pb-labeled compounds (~ 70 kBq) were incubated in 300 µL of phosphate buffered saline (PBS; 0.1 M, pH 7.4) or mouse serum at 37 °C. The stability of the radiolabeled peptides was monitored at 1, 4, and 24 h post-incubation. The samples in PBS were directly analyzed by radio-HPLC without any pretreatment. However, samples of mouse serum were mixed with an equal volume of acetonitrile to precipitate the proteins. The solution was centrifuged twice for 5 min at 13,000 rpm, and the supernatant was analyzed by radio-HPLC using Method 1 for lead-203 and Method 2 for lead-212.

The next series deals with AR42J tumors. Conditions: in vivo, cited from earlier work.
Series [3] is described as follows: SPECT/CT imaging with 203Pb-labeled ligands. It counts as in vivo. Conditions: mouse; for tissue uptake per volume / tissue uptake per volume at 1 h / tissue uptake per volume at 24 h: male, Balb/c nu/nu, tumor, iv, 0.5 nmol, total radioactivity, read-out: Tumor uptake from SPECT images; for tissue uptake per volume: 1, 4 and 24 h after administration, n = 4; for tissue uptake per volume at 1 h: 1 h post-injection; for tissue uptake per volume at 24 h: 24 h post-injection; for half-life: kidneys, intravenous, ^203Pb-labeled, H69 tumor-bearing mice, read-out: Renal clearance half-life (converted). Here is the method: SPECT/CT imaging was performed in H69-xenografted Balb/c nu/nu mice at 1, 4, and 24 h after the administration of [^203Pb]Pb-eSOMA-01 or [^203Pb]Pb-eSOMA-02. Tumors were visible by SPECT/CT for both radioligands (Figure 3A,B). […] They increased over time for [^203Pb]Pb-eSOMA-01 (0.5 ± 0.03 at 4 h to 0.70 ± 0.11 at 24 h), while they remained nearly constant for [^203Pb]Pb-eSOMA-02 (0.30 ± 0.09 at 4 h and 0.4 ± 0.03 at 24 h).
(§1) Six-week-old male Balb/c nu/nu-specific and opportunistic pathogen-tree (SOPF) mice (Janvier Labs, Le Genest-Saint-Isle, France) were housed in individually ventilated cages, with four mice per cage. Upon arrival, the mice were acclimated for 1 week with access to food and water ad libitum. Mice were subcutaneously inoculated on the right shoulder with NCI-H69 cells (5 × 10^6 cells suspended in 100 μL of 1/3 Matrigel (Corning Inc.; Corning, NY, USA) and 2/3 Hank’s balanced salt solution (Gibco; Paisley, UK). NCI-H69 xenografts were allowed to grow for 3 weeks. Tumor sizes were 391 ± 173 mm^3 at the start of the studies.
Mice (n = 4 per compound) were intravenously injected in the tail vein with 100 μL of [^203Pb]Pb-eSOMA-01 (12.31 ± 1.44 MBq, 0.5 nmol) or [^203Pb]Pb-eSOMA-02 (13.06 ± 1.44 MBq, 0.5 nmol) containing Kolliphor HS 15 (Merck; Haarlerbergweg, The Netherlands) in PBS (0.06 mg/mL). At 1, 4, and 24 h post-injection (p.i.), mice were imaged in a prone position on a heated bed under 2% isoflurane/O2 anesthesia in a dedicated small-animal PET/SPECT/CT VECTOR5 scanner (MILabs B.V.; Utrecht, The Netherlands) with a high-sensitivity pinhole collimator (HE-GP-M, 1.6 mm pinholes). Whole-body SPECT images were acquired over one frame of 20 min (for 1 and 4 h time points) and two frames of 20 min (for 24 h time points) using a spiral scan in normal scan mode, in list-mode acquisition. This was followed by a whole-body normal CT scan (angle step 0.75 degrees, 50 kV tube voltage, 0.21 mA tube current). Reconstruction of the SPECT images was performed using the similarity-regulated SROSEM method (MILabs Rec 11.00 software), performing five iterations with a voxel size of 0.4 mm, using 72 keV ± 30% and 280 keV ± 8% energy windows for lead-203. Reconstructed volumes of SPECT scans were post-filtered with an isotropic three-dimensional Gaussian filter of 1 mm full width at half-maximum. Image processing and analyses of the reconstructed data were performed using the PMOD image analysis software version 3.9 (PMOD Technologies; Zurich, Switzerland) to calculate the percentage of injected dose per mL (% ID/mL). An Eppendorf tube filled with a solution of lead-203 of known activity was measured to determine the calibration factor.

Series [4] is described as follows: Ex vivo biodistribution with lead-203. Conditions: mouse, 24 h post-injection. It counts as in vivo, mouse. Here is the method:
as §1
(§2) To determine the biodistribution of the compounds after imaging (1, 4, and 24 h p.i.), blood was collected via retro-orbital puncture under isoflurane/O2 anesthesia, after which the mice were sacrificed via cervical dislocation. The tumor and organs of interest (heart, lungs, liver, spleen, stomach, large intestine, small intestine, pancreas, kidneys, muscle, skin, and bone) were excised, washed in PBS, blotted dry, and collected into tubes. The blood, tumor, and relevant organs were weighed and measured with a gamma counter. The percentage of injected dose per gram (% ID/g) was determined for each tissue sample and corrected for both the injected volume and the % ID present at the injection site (the tail).

The next series concerns H69 tumor bearing mice. In words: Ex vivo biodistribution with lead-203. It counts as in vivo, mouse. The conditions noted are these: after 4 h (so in the source); p < 0.05. Here is the method: as §1, §2
Setting [5] is: blood, n = 4, read-out: Blood uptake.
The mark [6] stands for this setting: bone, n = 4, read-out: Bones uptake.
The mark [7] stands for this setting: heart, n = 4, read-out: Heart uptake.
Setting [8] is: kidneys, n = 4, read-out: Kidneys uptake.
Where [9] appears, read: large intestine, n = 4, read-out: Large Intestine uptake.
Setting [10] is: liver, n = 4, read-out: Liver uptake.
Where [11] appears, read: lungs, n = 4, read-out: Lungs uptake.
Where [12] appears, read: muscle, n = 4, read-out: Muscle uptake.
The mark [13] stands for this setting: non-target organs other than kidneys, intravenous, organs other than kidneys, read-out: Uptakes in all the other non-target organs.
The mark [14] stands for this setting: pancreas, n = 4, read-out: Pancreas uptake.
The mark [15] stands for this setting: skin, n = 4, read-out: Skin uptake.
Setting [16] is: small intestine, n = 4, read-out: Small Intestine uptake.
Where [17] appears, read: spleen, n = 4, read-out: Spleen uptake.
The mark [18] stands for this setting: stomach, n = 4, read-out: Stomach uptake.
[19] abbreviates: tumor, n = 4, read-out: Tumor uptake.

The term logD denotes lipophilicity at a set pH, counting ionised and neutral species. Low readings indicate lower lipophilicity, high ones higher lipophilicity. In general, half-life refers to the time needed for the level to fall by half in the phase considered.

Regarding `C[C@@H](O)[C@H](NC(=O)[C@@H]1CSSC[C@H](NC(=O)[C@@H](Cc2ccccc2)NC(=O)CN2CCN(CC(N)=O)CCN(CC(N)=O)CCN(CC(N)=O)CC2)C(=O)N[C@@H](Cc2ccc(O)cc2)C(=O)N[C@H](Cc2c[nH]c3ccccc23)C(=O)N[C@@H](CCCCN)C(=O)N[C@@H]([C@@H](C)O)C(=O)N1)C(=O)O` [[^203Pb]Pb-DOTAM-TATE, metal not drawn, reference compound], the logD in series [1] is -1.41 ± 0.01. In series [2], the remaining at 24 h is > 97%. In the series on AR42J tumors (1 h), the Tumor uptake was 13 % ID/g. Further, in the series with AR42J tumors (24 h), the Uptake in kidneys is reported as ~ 13 % ID/g.

For `C[C@@H](O)[C@H](NC(=O)[C@@H]1CSSC[C@H](NC(=O)[C@@H](Cc2ccccc2)NC(=O)[C@H]2CC[C@H](CNC(=O)CN3CCN(CC(N)=O)CCN(CC(N)=O)CCN(CC(N)=O)CC3)CC2)C(=O)N[C@@H](Cc2ccc(O)cc2)C(=O)N[C@H](Cc2c[nH]c3ccccc23)C(=O)N[C@@H](CCCCN)C(=O)N[C@@H]([C@@H](C)O)C(=O)N1)C(=O)O` [[^203Pb]Pb-eSOMA-01, metal not drawn], in series [1], the logD is -1.99 ± 0.03. Also, in series [2], the remaining at 24 h was > 97%. Also, the tissue uptake per volume in series [3] was 3 to 4 %ID/mL. Besides, the tissue uptake per volume at 1 h in series [3] is ~4 %ID/mL. In series [3], the tissue uptake per volume at 24 h is 2 to 3 %ID/mL. For the same molecule, the half-life in series [3] is 14.7 ± 2.4 h. For the same molecule, the tissue uptake at 24 h came out at 0.05 ± 0.02 %ID/g in series [4] (setting [5]); 0.27 ± 0.02 %ID/g in series [4] (setting [6]); 0.05 ± 0.01 %ID/g in series [4] (setting [7]); 7.44 ± 1.17 %ID/g in series [4] (setting [8]); 0.34 ± 0.08 %ID/g in series [4] (setting [9]); 0.86 ± 0.1 %ID/g in series [4] (setting [10]). Further, the tissue uptake at 24 h in series [4] (setting [11]) was 0.36 ± 0.05 %ID/g; in series [4] (setting [12]), 0.18 ± 0.03 %ID/g; in series [4] (setting [13]), < 1 %ID/g; in series [4] (setting [14]) it was 0.12 ± 0.02 %ID/g; in series [4] (setting [15]), 0.03 ± 0.02 %ID/g; in series [4] (setting [16]) it was 0.12 ± 0.02 %ID/g. Also, the tissue uptake at 24 h in series [4] (setting [17]) was found to be 0.22 ± 0.03 %ID/g; in series [4] (setting [18]), 0.75 ± 0.34 %ID/g; in series [4] (setting [19]) it was 2.89 ± 0.84 %ID/g.

As for `C[C@@H](O)[C@H](NC(=O)[C@@H]1CSSC[C@H](NC(=O)[C@@H](Cc2ccccc2)NC(=O)CN2CCC(NC(=O)CN3CCN(CC(N)=O)CCN(CC(N)=O)CCN(CC(N)=O)CC3)CC2)C(=O)N[C@@H](Cc2ccc(O)cc2)C(=O)N[C@H](Cc2c[nH]c3ccccc23)C(=O)N[C@@H](CCCCN)C(=O)N[C@@H]([C@@H](C)O)C(=O)N1)C(=O)O` [[^203Pb]Pb-eSOMA-02, metal not drawn], the logD in series [1] was -1.88 ± 0.03. For the same molecule, the remaining at 24 h in series [2] was > 97%. For the same molecule, in series [3], the tissue uptake per volume was 3 to 4 %ID/mL. In addition, in series [3], the tissue uptake per volume at 1 h was ~4 %ID/mL. In addition, the tissue uptake per volume at 24 h in series [3] fell in the range of 2 to 3 %ID/mL. The half-life in series [3] is 24.2 ± 4.5 h. Further, the tissue uptake at 24 h worked out at 0.17 ± 0.11 %ID/g in series [4] (setting [5]); 0.67 ± 0.04 %ID/g in series [4] (setting [6]); 0.09 ± 0.02 %ID/g in series [4] (setting [7]); 12.6 ± 0.02 %ID/g in series [4] (setting [8]); 0.41 ± 0.06 %ID/g in series [4] (setting [9]); 1.11 ± 0.05 %ID/g in series [4] (setting [10]). Also, the tissue uptake at 24 h in series [4] (setting [11]) was 0.53 ± 0.04 %ID/g; in series [4] (setting [12]), 0.04 ± 0.07 %ID/g; in series [4] (setting [13]) it was < 1 %ID/g; in series [4] (setting [14]) it was 0.83 ± 0.96 %ID/g; in series [4] (setting [15]), 0.43 ± 0.09 %ID/g; in series [4] (setting [16]), 0.24 ± 0.03 %ID/g. The tissue uptake at 24 h in series [4] (setting [17]) was determined as 0.61 ± 0.15 %ID/g; in series [4] (setting [18]) it was 0.67 ± 0.19 %ID/g; in series [4] (setting [19]), 2.54 ± 0.36 %ID/g. Also, the “More uptake in the kidneys compared to [203Pb]Pb-eSOMA-01” value in the series on H69 tumor bearing mice is recorded as “around 41%”.
